Assay results from patent publication US9765039B2, “Biaryl derivatives as bromodomain inhibitors” (Zenith Epigenetics Ltd., priority 2012, dated 2017).

Columns and labels:
[1] = molecular target: T1, Brd4 bromodomain 1 (Homo sapiens, UniProt O60885); assay: Inhibition of tetra-acetylated histone H4 binding to BET bromodomains (TR-FRET); set-up: key: Active: Compounds with an IC50 value less than 30 μM were deemed to be active.; Not Active: Compounds with an IC50 value less than 30 μM were deemed to be active; settings: first bromodomain of Brd4, tetra-acetylated histone H4 peptide
T1 construct: made in house; host or cells: E. coli BL21(DE3)
Experimental: Proteins were cloned and overexpressed with a N-terminal 6×His tag, then purified by nickel affinity followed by size exclusion chromatography. Briefly, E. coli BL21(DE3) cells were transformed with a recombinant expression vector encoding N-terminally Nickel affinity tagged bromodomains from Brd2, Brd3, Brd4. Cell cultures were incubated at 37° C. with shaking to the appropriate density and induced overnight with IPTG. The supernatant of lysed cells was loaded onto Ni-IDA column for purification. Eluted protein was pooled, concentrated and further purified by size exclusion chromatography. Fractions representing monomeric protein were pooled, concentrated, aliquoted, and frozen at −80° C. for use in subsequent experiments.
Binding of tetra-acetylated histone H4 and BET bromodomains was confirmed by a Time Resolved Fluorescence Resonance Energy Transfer (TR-FRET) method. N-terminally His-tagged bromodomains (200 nM) and biotinylated tetra-acetylated histone H4 peptide (25-50 nM, Millipore) were incubated in the presence of Europium Cryptate-labeled streptavidin (Cisbio Cat. #610SAKLB) and XL665-labeled monoclonal anti-His antibody (Cisbio Cat. #61HISXLB) in a white 96 well microtiter plate (Greiner). For inhibition assays, serially diluted test compound was added to these reactions in a 0.2% final concentration of DMSO. Final buffer concentrations were 30 mM HEPES pH 7.4, 30 mM NaCl, 0.3 mM CHAPS, 20 mM phosphate pH 7.0, 320 mM KF, 0.08% BSA). After 2 hours incubation at room temperature, the fluorescence by FRET was measured at 665 and 620 nm by a SynergyH4 plate reader (Biotek). Illustrative results with the first bromodomain of Brd4 are shown below (Table 1). The binding inhibitory activity was shown by a decrease in 665 nm fluorescence relative to 620 nm. IC50 values were determined from a dose response curve.

[2] = test system: c-myc; assay: Inhibition of c-myc expression in cancer cell lines (mRNA, real-time PCR); format: cell-based; set-up: key: Active: Compounds with an IC50 value less than 30 μM were deemed to be active; settings: Human AML MV4-11 cells, 3 hours
Experimental: MV4-11 cells (2.5×10^4 cells) were plated in 96 well U-bottom plates with test compound or DMSO (0.1%), and incubated for 3 hours at 37° C. Cells were then harvested by centrifugation, lysed, and mRNA was isolated using the mRNA catcher plus kit (Invitrogen). Reverse transcription of the mRNA and duplex amplification of the c-myc and cyclophilin cDNAs was performed using the RNA Ultrasense kit (Invitrogen) and a ViiA7 real-time PCR machine (Applied Biosystems). IC50 values were determined from a dose response curve.

[3] = test system: Human AML MV-4-11 cells; assay: Inhibition of cell proliferation in cancer cell lines (CellTiter Aqueous One); format: cell-based; set-up: key: Active: Compounds with an IC50 value less than 30 μM were deemed to be active.; Not Active: Compounds with an IC50 value less than 30 μM were deemed to be active; settings: 72 hours
Experimental: MV4-11 cells: 96-well plates were seeded with 5×10^4 cells per well of exponentially growing human AML MV-4-11 (CRL-9591) cells and immediately treated with two-fold dilutions of test compounds, ranging from 30 μM to 0.2 μM. Triplicate wells were used for each concentration, as well as a media only and three DMSO control wells. The cells and compounds were incubated at 37° C., 5% CO2 for 72 hours before adding 20 μL of the CellTiter Aqueous One Solution (Promega) to each well and incubating at 37° C., 5% CO2 for an additional 3-4 hours. The absorbance was taken at 490 nm in a spectrophotometer and the percentage of proliferation relative to DMSO-treated cells was calculated after correction from the blank well. IC50 were calculated using the GraphPad Prism software.

[4] = test system: hIL-6 mRNA; assay: Inhibition of hIL-6 mRNA transcription in LPS-stimulated U937 macrophages; format: cell-based, human; set-up: key: Active: Compounds with an IC50 value less than 30 μM are deemed to be active; settings: U937 differentiated into macrophages, 1 h pretreatment, lipopolysaccharide 3 h
Experimental: In this example, hIL-6 mRNA in tissue culture cells was quantitated to measure the transcriptional inhibition of hIL-6 when treated with a compound of the present disclosure.
A human leukemic monocyte lymphoma cell line (U937) was plated (3.2×10^4 cells per well) in a 96-well plate in 100 μL RPMI-1640 containing 10% FBS and penicillin/streptomycin, and differentiated into macrophages for 3 days in 60 ng/mL PMA ([…]) at 37° C. in 5% CO2 prior to the addition of the compound of interest. The cells were pretreated for 1 h with the test compound prior to stimulation with […] lipopolysaccharide from Escherichia coli. The cells were incubated at 37° C. for 3 h before the cells were harvested. At time of harvest, the spent media was removed from the cells and the cells were rinsed in 200 μL PBS. Cell lysis solution (70 μL) was added the cells in each well and incubated for 5-10 min at room temperature, to allow for complete cell lysis and detachment. mRNA was then prepared using the “mRNA Catcher PLUS plate” (Invitrogen), according to the protocol supplied. After the last wash, as much wash buffer as possible was aspirated without allowing the wells to dry. Elution buffer (E3, 70 μL) was then added to each well. mRNA was then eluted by incubating the mRNA Catcher PLUS plate with Elution Buffer for 5 min at 68° C. and then immediately placing the plate on ice.
The eluted mRNA isolated was then used in a one-step quantitative real-time PCR reaction, using components of the Ultra Sense Kit together with Applied Biosystems primer-probe mixes. Real-time PCR data was analyzed, normalizing the Ct values for hIL-6 to an internal control, prior to determining the fold induction of each unknown sample, relative to the control.

[5] = test system: hApoA-1 mRNA; assay: Up-regulation of hApoA-1 mRNA transcription in Huh7 cells; format: cell-based, human; set-up: key: Active: Compounds with an EC170 value less than 30 μM are deemed to be active.; Not Active: Compounds with an EC170 value less than 30 μM are deemed to be active; settings: 48 hrs treatment, ApoA-I mRNA
Experimental: In this example, ApoA-I mRNA in tissue culture cells was quantitated to measure the transcriptional up-regulation of ApoA-I when treated with a compound of the present disclosure.
Huh7 cells ([…] per well) were plated in a 96-well plate using 100 μL DMEM per well, (Gibco DMEM supplemented with penicillin/streptomycin and 10% FBS), 24 h before the addition of the compound of interest. After 48 hrs treatment, the spent media was removed from the Huh-7 cells and placed on ice (for immediate use) or at −80° C. (for future use) with the “LDH cytotoxicity assay Kit II” from Abcam. The cells remaining in the plate were rinsed with 100 μL PBS.
Then 85 μL of cell lysis solution was added to each well and incubated for 5-10 minutes at room temperature, to allow for complete cell lysis and detachment. mRNA was then prepared using the “mRNA Catcher PLUS plate” from Life Technologies, according to the protocol supplied. After the last wash, as much wash buffer as possible was aspirated without allowing the wells to dry. Elution Buffer (E3, 80 μL) was then added to each well. mRNA was then eluted by incubating the mRNA Catcher PLUS plate with Elution Buffer for 5 minutes at 68° C., and then 1 minute at 4° C. Catcher plates with mRNA eluted were kept on ice for use or stored at −80° C.
The eluted mRNA isolated was then used in a one-step real-time PCR reaction, using components of the Ultra Sense Kit together with Life Technologies primer-probe mixes. Real-time PCR data was analyzed, using the Ct values, to determine the fold induction of each unknown sample, relative to the control (that is, relative to the control for each independent DMSO concentration).
Compounds with an EC170 value less than 30 μM are deemed to be active.

Structure (SMILES)	FRET activity (IC50 < 30 μM) [1]	c-myc activity (IC50 < 30 μM) [2]	cell proliferation activity (IC50 < 30 μM) [3]	IL-6 activity (IC50 < 30 μM) [4]	ApoA-1 Activity (EC170 < 30 μM) [5]	melting point
COc1cc(OC)c2c(=O)[nH]c(-c3ccc(OCCO)c(-c4ccc(C(=O)N(C)C)cc4C)n3)nc2c1 [Example 3, 4-(6-(5,7-Dimethoxy-4-oxo-3,4-dihydroquinazolin-2-yl)-3-(2-hydroxyethoxy)pyridin-2-yl)-N,N,3-trimethylbenzamide]	Active	Not Active	Not Active	Active	Active	
COc1cc(OC)c2c(=O)[nH]c(-c3cccc(-c4ccc([S+](C)[O-])s4)c3)nc2c1 (centres unmarked) [Example 51, 5,7-Dimethoxy-2-(3-(5-(methylsulfinyl)thiophen-2-yl)phenyl)quinazolin-4(3H)-one]	Active	Not Active	Not Active	Active		289 to 290 °C
COc1cc(OC)c2c(=O)[nH]c(-c3cc(-c4ccc([S+](C)[O-])cc4)c4[nH]ccc4c3)nc2c1 (centres unmarked) [Example 52, 5,7-Dimethoxy-2-(7-(4-(methylsulfinyl)phenyl)-1H-indol-5-yl)quinazolin-4(3H)-one]	Active	Not Active	Not Active	Active		316 °C (dec.)
COc1cc(OC)c2c(=O)[nH]c(-c3ccc(OC)c(-c4ccc(C(=O)N(C)C)cc4C)n3)nc2c1 [Example 54, 4-(6-(5,7-Dimethoxy-4-oxo-3,4-dihydroquinazolin-2-yl)-3-methoxypyridin-2-yl)-N,N,3-trimethylbenzamide]	Active	Not Active	Not Active	Active		248 to 251 °C
COc1cc(OC)c2c(=O)[nH]c(-c3ccc(OC)c(-c4ccc(C(=O)N(C)C)cc4Cl)n3)nc2c1 [Example 56, 3-Chloro-4-(6-(5,7-dimethoxy-4-oxo-3,4-dihydroquinazolin-2-yl)-3-methoxypyridin-2-yl)-N,N-dimethylbenzamide]	Not Active	Not Active	Not Active	Active		271 to 272 °C
COc1ccc(-c2nc3cccc(OC)c3c(=O)[nH]2)nc1-c1ccc([S+](C)[O-])cc1 (centres unmarked) [Example 57, 5-Methoxy-2-(5-methoxy-6-(4-(methylsulfinyl)phenyl)pyridin-2-yl)quinazolin-4(3H)-one]	Active	Not Active	Not Active	Active		308 to 310 °C
COc1cc(OC)c2c(=O)[nH]c(-c3ccc(OC)c(-c4ccc(S(C)(=O)=O)cc4)n3)nc2c1 [Example 58, 5,7-Dimethoxy-2-(5-methoxy-6-(4-(methylsulfonyl)phenyl)pyridin-2-yl)quinazolin-4(3H)-one]	Active	Not Active	Not Active	Active		279 to 281 °C
COc1ccc2c(=O)[nH]c(-c3ccc(OCCO)c(-c4ccc([S+](C)[O-])cc4)n3)nc2c1 (centres unmarked) [Example 60, 2-(5-(2-Hydroxyethoxy)-6-(4-(methylsulfinyl)phenyl)pyridin-2-yl)-7-methoxyquinazolin-4(3H)-one]	Active	Not Active	Not Active	Not Active		266 to 267 °C
COc1cc(OC)c2c(=O)[nH]c(-c3ccc(OCC[N+]4([O-])CCCC4)c(-c4ccc(S(C)(=O)=O)cc4)n3)nc2c1 [Example 63, 1-(2-((6-(5,7-Dimethoxy-4-oxo-3,4-dihydroquinazolin-2-yl)-2-(4-(methylsulfonyl)phenyl)pyridin-3-yl)oxy)ethyl)pyrrolidine 1-oxide]	Active	Not Active	Not Active	Active		167 to 170 °C
COc1cccc2nc(-c3ccc(OCCNC(C)C)c(-c4ccc(S(C)(=O)=O)cc4)n3)[nH]c(=O)c12 [Example 64, 2-(5-(2-(Isopropylamino)ethoxy)-6-(4-(methylsulfonyl)phenyl)pyridin-2-yl)-5-methoxyquinazolin-4(3H)-one]	Active	Active	Active	Active		222 to 223 °C
